Experimental data from paper PMC10975012, “The Active Glucuronide Metabolite of the Brain Protectant IMM-H004 with Poor Blood–Brain Barrier Permeability Demonstrates a High Partition in the Rat Brain via Multiple Mechanisms” (Pharmaceutics, 2024).
Where two headings read alike, the source gives them in different places.

How the values were obtained:
[1] = system: OATP; experiment: Identification of transporters using inhibitors in hCMEC/D3 cells: OATP; assay type: cell-based, human; details: substrate 10 μmol/L, inhibitor 100 μmol/L
Method: The toxicity of all compounds, including inhibitors and substrates, toward hCMEC/D3 cells, was assessed using the 3-(4,5-Dimethylthiazol-2-yl)-2,5-diphenyltetrazolium bromide (MTT) reduction assay as described previously. To assess the effects of pyrilamine-sensitive proton-coupled organic cation (H^+/OC) antiporter, organic anion transporter (OAT), organic anion-transporting polypeptides (OATPs), organic cation transporter (OCT), and novel organic cation–carnitine transporter (OCTN) inhibitors on the uptake process, IMM-H004 or IMM-H004G (10 µmol/L) combined with the inhibitors were added to the medium after preincubating the cells with the inhibitors for 30 min. For evaluating the impact of the multidrug and toxin extrusion transporter (MATE), P-glycoprotein (P-gp), multidrug resistance protein (MRP), and breast cancer resistance protein (BCRP) on the uptake, IMM-H004 or IMM-H004G (10 µmol/L) was preincubated with the cells for 2 h before the addition of the inhibitors. After removing the supernatant, the cells were washed twice with prewarmed HBSS and incubated with fresh HBSS for 20 min. At the end of incubation, the supernatants were collected. […] The protein content of the lysed cells was determined using a bicinchoninic acid (BCA) assay kit (Beyotime Inc., Shanghai, China). The results were expressed as a percentage of the vehicle control.

[2] = target: T1, OATP1B1 (Homo sapiens, UniProt Q9Y6L6); experiment: Uptake in MDCKⅡ-OATP1B1 cells; assay type: cell-based; details: MDCKⅡ-OATP1B1, 30, 60 µmol/L, 20 or 40 min
T1 construct: expressed in transfected cells; host or cells: MDCKII
T1 sequence (Q9Y6L6 1-691): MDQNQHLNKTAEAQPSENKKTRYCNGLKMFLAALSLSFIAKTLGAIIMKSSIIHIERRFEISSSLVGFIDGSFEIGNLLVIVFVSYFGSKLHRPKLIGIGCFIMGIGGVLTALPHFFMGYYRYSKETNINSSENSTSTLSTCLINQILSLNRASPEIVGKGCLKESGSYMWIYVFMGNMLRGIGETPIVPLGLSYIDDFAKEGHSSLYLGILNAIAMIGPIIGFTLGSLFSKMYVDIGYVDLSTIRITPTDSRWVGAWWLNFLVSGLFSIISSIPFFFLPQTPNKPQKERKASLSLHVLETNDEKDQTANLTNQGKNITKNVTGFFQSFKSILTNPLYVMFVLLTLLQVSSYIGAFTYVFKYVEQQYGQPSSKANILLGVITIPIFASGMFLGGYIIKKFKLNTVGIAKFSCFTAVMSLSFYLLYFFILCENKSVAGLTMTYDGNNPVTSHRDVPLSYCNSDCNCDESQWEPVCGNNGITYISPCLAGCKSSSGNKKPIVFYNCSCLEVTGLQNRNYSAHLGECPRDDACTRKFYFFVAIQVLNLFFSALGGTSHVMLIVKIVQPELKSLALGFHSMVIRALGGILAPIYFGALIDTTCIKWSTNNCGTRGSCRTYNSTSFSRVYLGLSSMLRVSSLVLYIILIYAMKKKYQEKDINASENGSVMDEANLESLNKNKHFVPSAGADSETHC
Method: Figure S4 Uptake of IMM-H004G in MDCKⅡ-OATP1B1 and MDCKⅡ-OATP1B3 cells. (a)
RSV (rosuvastatin, 30 µmol/L) is used as a positive group in MDCKⅡ-OATP1B1 cells. (b)
E17βG (estradiol-17β-glucuronide, 5 µmol/L) is used as a positive group in
MDCKⅡ-OATP1B3 cells. (c) IMM-H004G (30, 60 µmol/L) was incubated with
MDCKⅡ-OATP1B1 and MDCKⅡ-OATP1B3 cells for 20 or 40 min. The OATP
pan-inhibitor CsA (cyclosporin A) is 10 µmol/L. n=3 for positive substrates, and n=2 for
IMM-H004G. ***p < 0.001, **p < 0.01, *p < 0.05 vs. control group. ns, not significant.
(1 picture or pasted object on this page, not shown here)

[3] = system: SH-SY5Y cells; experiment: In vitro metabolism in human brain cells (SH-SY5Y); assay type: in vitro ADME; details: IMM-H004 1–100 μmol/L
Method: SH-SY5Y, HEB, and hCMEC/D3 cells were utilized to investigate the in vitro metabolism of IMM-H004 and IMM-H004G in the brain. SH-SY5Y and HEB cells were cultured routinely in Dulbecco’s modified Eagle’s medium (DMEM) containing 10% fetal bovine serum and a 100 U/mL penicillin–100 μg/mL streptomycin solution. hCMEC/D3 cells were seeded on collagen type I coated 24-well plates and cultured in EndoGRO™-MV complete medium following the manufacturer’s guidelines. The cells were incubated at 37 °C, with 5% CO2, and were maintained in a humidified environment. Once the confluence reached 70–80%, the cells were digested using a 0.25% trypsin–EDTA solution, centrifuged at 200× g for 5 min, and then resuspended in a fresh culture medium. For each experiment, after seeding and 24 h incubation, the cells were washed twice with a prewarmed culture medium, and then IMM-H004 or IMM-H004G (1–100 μmol/L) dissolved in the culture medium was added. Incubation was carried out at 37 °C for 5 h or 24 h. After incubation, the supernatants were collected. Subsequently, the cells were washed with cold HBSS three times and lysed in a RIPA lysis buffer (Beyotime Inc., Shanghai, China). The concentrations of IMM-H004 and IMM-H004G were determined by liquid chromatography with tandem mass spectrometry (LC-MS/MS).

[4] = system: P-gp; experiment: Bidirectional transport in MDCKⅡ-MDR1 cell monolayers; assay type: in vitro ADME; details: dog
Method: To further validate the effect of P-gp on the transport of IMM-H004G or IMM-H004, MDCKⅡ-MDR1 cells were seeded onto polycarbonate membrane transwell inserts in 24-well plates and used for transport studies after 5 days or when the effective transepithelial electric resistance (TEER) values exceeded 300 Ω·cm^2. The monolayers were initially rinsed twice with HBSS. Subsequently, IMM-H004G or IMM-H004 (10 µmol/L) was added to either the apical or basolateral side of the monolayer. Aliquots of 50 µL were collected from the opposite compartment at various time points, covering a maximum duration of 120 min. Digoxin (5 μmol/L) was used as a positive substrate, while PSC833 (5 µmol/L) was used as an inhibitor in MDCKⅡ-MDR1 cells. The apparent permeability value (Papp) was calculated using the following equation:(2) Papp=dQ/dt/AC0 where dQ/dt is the slope of the cumulative transport amount over time during the study period. A is the base area of the insert, and C0 is the initial addition concentration.
The efflux ratio (ER) was calculated as follows:ER = Papp(B−A)/Papp(A−B) (3)

| SMILES | reduction of uptake by OATP inhibitor rifamycin [1] [%] | uptake increase in OATP1B1-overexpressing cells compared to control cells [2] | production of IMM-H004G from IMM-H004 [3] | efflux ratio at 120 min ([4]; MDCK-MDR1, with PSC833 5 µmol/L, MDCKⅡ-MDR1, PSC833 5 µmol/L, read-out: efflux ratio (ER) in the presence of PSC833) | efflux ratio at 120 min ([4]; MDCK-MDR1, MDCKⅡ-MDR1, no inhibitor, IMM-H004 10 µmol/L, digoxin 5 μmol/L, read-out: efflux ratio (ER)) |
| --- | --- | --- | --- | --- | --- |
| COc1cc(OC2OC(C(=O)O)C(O)C(O)C2O)cc2oc(=O)c(N3CCN(C)CC3)c(C)c12 (centres unmarked) [IMM-H004G] | 39.6 | did not exceed a tenfold increase | – | – | – |
| COc1cc(O)cc2oc(=O)c(N3CCN(C)CC3)c(C)c12 [IMM-H004] | – | – | not detected | 1.1 | 2.96 |
